Laboratory results published in patent US20230372350A1, “ASTROCYTIC TRPA1 CHANNEL INHIBITION AS A NOVEL NEUROPROTECTIVE THERAPEUTIC TARGET IN THE PRODROMAL PHASES OF ALZHEIMER'S DISEASE” (priority 2020, published 2023).
pIC50: −log10 of the molar value.

Columns and labels:
[1] = system: CA1 pyramidal neurons of APP/PS1-21 and WT mice; test: Chronic intraperitoneal treatment: whole-cell recording of sEPSCs of CA1 pyramidal neurons; format: in vivo, mouse
Description: The used model is a transgenic murine model obtained on a C57BL/6J genetic background which co-expresses the mutated human form of the amyloid precursor protein (mutated APP KM670/671NL) and of presenilin 1 (mutated PS1 L166P) under the control of the neural promoter Thy1. The presence of these two mutations allows increased production of the Aβ peptide from the 14th postnatal day. This leads to cerebral amyloidosis with the appearance of the first senile plaques around 8 postnatal weeks. This amyloid pathology is accompanied by inflammatory gliosis (microgliosis and astrogliosis detectable from 4 months), dendritic spine dystrophy and tau hyperphosphorylation (around 8 months). Cognitive behavioral disorders, and in particular of learning and spatial memory, are developed in around 6 to 8 months. This model was set-up and described by Rebecca Radde in 2006 (Radde et al., EMBO reports, 2006) and is widely used by the scientific community. This model is available in the animal facility of the Institut des Neurosciences de Grenoble and has been bred by the inventors since 2014. This solution is then diluted to 1 μg/μl in an isotonic solution containing 1% Pluronic F-127 and 0.9% NaCl. The animals are injected daily intraperitoneally at a dose of 5 mg/kg of body mass. Sterile 0.5 ml BD MicroFine syringes with no dead volume, equipped with a 30G (0.3 mm) needle are used for the injections. The carrier (10% DMSO, 1% Pluronic F-127, 0.9% NaCl) is used as a control and is also injected daily, according to the same procedure, into the WT and APP/PS1 control animals (carrier groups). The injection is started from the 14th postnatal day (appearance of the expression of the Thy1gene promoter in the hippocampus, triggering the overexpression of Aβ in the APP/PS1-21 murine model) Coronal sections of the hippocampus (thickness 300 μm) were prepared from APP/PS1-21 transgenic mice (1 month and 3 months old) or from WT mice from the same litter. The mice were sacrificed by decerebration and decapitation. The brain was quickly removed and sectioned in ice-cold ACSF containing (in mM) : 2.5 KCl, 7 MgCl2, 0.5 CaCl2, 1.2 NaHPO4, 25 NaHCO3, 11D-glucose and 234 sucrose bubbled with 95% of O2 and 5% of CO2 with a V[…] vibratome (Leica, Germany). The sections containing the hippocampus were placed in ACSF containing (in mM) : 126 NaCl, 2.5 KCl, 1.2 MgCl2, 2.5 CaCl2, 1.2 NaH2PO4 bubbled with 95% of O2 and 5% of CO2 and supplemented with 1 mM of sodium pyruvate at room temperature for a recovery period. Whole-cell recordings were performed on visually identified CA1 pyramidal neuron somas. The patch pipettes (4-6 MΩ) were filled with an internal solution containing (in mM): 105 K-gluconate, 30 KCL, 10 phosphocreatine, 10 HEPES, 4 ATP-Mg, 0.3 GTP-Tris, 0.3 EGTA, adjusted to pH 7.2 with KOH. Spontaneously excitatory postsynaptic currents (sEPSCs) were collected at a membrane holding potential of -60 mV which is close to the GABA reversal potential. All recordings were made at room temperature (22-24° C.) and only a single neuron was studied per section. The sEPSCs and their kinetics were analyzed, after a stabilization period of 10 minutes, 5 minutes from the recordings. Access resistance was constantly monitored and recordings were excluded from this study when this parameter varied more than 20% during the experiment. Recordings were analyzed using the Clampfit module of pClamp8 software (Molecular Devices, USA) with a single one at 20 pA to exclude miniature sEPSCs.

[2] = system: dendritic spines of CA1 pyramidal neurons, Thy1-eYFP-H-APP/PS1-21 mice; test: Chronic intraperitoneal treatment: analysis of dendritic spines; format: in vivo, mouse; details: 3 months, treated from 14th postnatal day
Description: In some experiments, APP/PS1-21 mice were crossed with the Thy1-eYFP-H murine transgenic line which expresses the fluorescent protein eYFP in specific neuron subpopulations. This solution is then diluted to 1 μg/μl in an isotonic solution containing 1% Pluronic F-127 and 0.9% NaCl. The animals are injected daily intraperitoneally at a dose of 5 mg/kg of body mass. Sterile 0.5 ml BD MicroFine syringes with no dead volume, equipped with a 30G (0.3 mm) needle are used for the injections. The injection is started from the 14th postnatal day (appearance of the expression of the Thy1gene promoter in the hippocampus, triggering the overexpression of Aβ in the APP/PS1-21 murine model) Hippocampal sections from Thy1-eYFP-H-APP/PS1-21 mice were imaged using a Zeiss Airyscan module with a 100× (NA 1.4) Plan Apochromat oil immersion objective. Confocal image stacks (increment of 200 nm) were performed with a voxel size of 0.041×0.041×0.2 μm. The 3D analysis of the spine density, of the spine volume and the spine classification was performed using NeuronStudio software (Icahn School of Medicine at Mount Sinai, USA). The length of individual dendrites was automatically measured as well as the number and volume of associated dendritic spines which were classified as […], thin or mushroom using automated 3D shape classification. For each condition, 10 dendrites were imaged and 700 dendritic spines were analyzed.

[3] = system: WT control animals; test: Chronic intraperitoneal treatment: overall effect on WT control animals; format: in vivo; details: daily injection from the 14th to the 90th postnatal day
Description: This solution is then diluted to 1 μg/μl in an isotonic solution containing 1% Pluronic F-127 and 0.9% NaCl. The animals are injected daily intraperitoneally at a dose of 5 mg/kg of body mass. Sterile 0.5 ml BD MicroFine syringes with no dead volume, equipped with a 30G (0.3 mm) needle are used for the injections.
The injection is started from the 14th postnatal day (appearance of the expression of the Thy1gene promoter in the hippocampus, triggering the overexpression of Aβ in the APP/PS1-21 murine model)

[4] = biological target: human forms of TRPA1 (Homo sapiens, UniProt O75762); details: McNamara et al. 2007, read-out: CI50 (the source's name); cited from earlier work
human forms of TRPA1, sequence (O75762 whole entry): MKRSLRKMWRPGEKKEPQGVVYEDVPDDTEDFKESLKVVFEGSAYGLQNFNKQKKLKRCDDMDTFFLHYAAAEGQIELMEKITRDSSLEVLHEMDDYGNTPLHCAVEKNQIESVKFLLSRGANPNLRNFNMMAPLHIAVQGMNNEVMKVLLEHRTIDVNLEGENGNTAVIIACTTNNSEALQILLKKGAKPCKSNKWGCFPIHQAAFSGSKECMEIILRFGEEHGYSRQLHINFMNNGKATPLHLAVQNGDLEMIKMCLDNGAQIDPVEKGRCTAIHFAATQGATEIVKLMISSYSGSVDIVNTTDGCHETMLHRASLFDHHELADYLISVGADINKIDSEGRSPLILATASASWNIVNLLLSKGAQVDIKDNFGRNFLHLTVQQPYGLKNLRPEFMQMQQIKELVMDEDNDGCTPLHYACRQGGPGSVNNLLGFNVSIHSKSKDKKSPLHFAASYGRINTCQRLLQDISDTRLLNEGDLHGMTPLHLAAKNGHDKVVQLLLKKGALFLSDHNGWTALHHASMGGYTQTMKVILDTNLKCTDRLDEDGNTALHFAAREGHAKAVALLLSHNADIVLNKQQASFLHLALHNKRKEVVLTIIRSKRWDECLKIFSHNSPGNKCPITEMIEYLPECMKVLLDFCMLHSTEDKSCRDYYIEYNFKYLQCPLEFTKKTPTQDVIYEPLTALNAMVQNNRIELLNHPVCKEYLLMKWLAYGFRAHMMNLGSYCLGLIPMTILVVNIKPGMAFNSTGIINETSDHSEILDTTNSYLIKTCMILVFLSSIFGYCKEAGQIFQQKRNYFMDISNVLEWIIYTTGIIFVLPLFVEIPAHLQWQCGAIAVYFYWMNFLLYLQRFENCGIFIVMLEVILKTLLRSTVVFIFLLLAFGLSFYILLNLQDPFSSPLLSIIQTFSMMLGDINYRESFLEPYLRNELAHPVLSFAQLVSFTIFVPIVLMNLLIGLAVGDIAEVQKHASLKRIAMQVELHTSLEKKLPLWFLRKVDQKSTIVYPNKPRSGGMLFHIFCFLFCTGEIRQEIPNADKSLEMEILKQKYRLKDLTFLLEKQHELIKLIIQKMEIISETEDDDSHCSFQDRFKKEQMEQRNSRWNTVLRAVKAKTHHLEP

[5] = system: trigeminal neuropathy-like pain behaviors; details: mice, subcutaneous (100 μg/10 μl) or intragastric (300 mg/kg); Trevisan et al. 2016; cited from earlier work
[6] = APP/PS1-21 mice, 3 months, 5 mg/kg i.p. from 14th postnatal day
[7] = WT mice, 3 months, chronic treatment 5 mg/kg i.p.

Compound: CC(C)c1ccc(NC(=O)Cn2cnc3c2c(=O)n(C)c(=O)n3C)cc1 [HC030031, 2-(1,3-Dimethyl-2,6-dioxo-1,2,3,6-tetrahydro-7H-purin-7-yl)-N-(4-isopropylphenyl)acetamide]
- sEPSC amplitude ([1]; 1-month old mice, 5 mg/kg i.p. daily from 14th postnatal day): no impact
- amplitude of sEPSCs [1, 6]: 33.4±1.4 pA
- frequency of sEPSCs [1, 6]: 0.10±0.01 Hz
- frequency of sEPSCs ([1]; APP/PS1-21 transgenic mice, 1 month, 5 mg/kg i.p. daily from 14th postnatal day): 0.10±0.02 Hz
- frequency of sEPSCs ([1]; WT litter mice, 1 month, 5 mg/kg i.p. daily from 14th postnatal day): 0.10±0.04 Hz
- amplitude of the sEPSCs [1, 7]: no effect
- frequency of the sEPSCs [1, 7]: no effect
- dendritic spine density [2]: 1.32±0.08 spine/μm
- mushroom-shaped spines [2]: 64.0±1.7%
- thin spines [2]: 26.7±2.0%
- effect at the functional level and at the structural level [3]: no effect
- pIC50 [4]: ~5.21
- trigeminal neuropathy-like pain behaviors [5]: abolished
